Results taken from PubChem BioAssay AID1259407 (Chemical Carcinogenesis Research Information System (CCRIS), 2018).
Activity calls are given as the source filed them. No rule for the calls is given here.

Tested on: CCRIS mutagenicity, Ames/micronucleus/aberration tests
Experiment: CCRIS mutagenicity studies
[1] = Test System: AMES SALMONELLA TYPHIMURIUM, Strain/Indicator: TA97, Metabolic Activation: NONE, Method: PREINCUBATION
[2] = Test System: AMES SALMONELLA TYPHIMURIUM, Strain/Indicator: TA98, Metabolic Activation: NONE, Method: PREINCUBATION
[3] = Test System: AMES SALMONELLA TYPHIMURIUM, Strain/Indicator: TA98, Metabolic Activation: NONE, Method: STANDARD PLATE
[4] = Test System: AMES SALMONELLA TYPHIMURIUM, Strain/Indicator: TA98, Metabolic Activation: RAT, LIVER, S-9, AROCLOR 1254 (10%), Method: PREINCUBATION
[5] = Test System: AMES SALMONELLA TYPHIMURIUM, Strain/Indicator: TA98, Metabolic Activation: RAT, LIVER, S-9, AROCLOR 1254 (30%), Method: PREINCUBATION
[6] = Test System: AMES SALMONELLA TYPHIMURIUM, Strain/Indicator: TA100, Metabolic Activation: NONE, Method: PREINCUBATION
[7] = Test System: AMES SALMONELLA TYPHIMURIUM, Strain/Indicator: TA100, Metabolic Activation: NONE, Method: STANDARD PLATE
[8] = Test System: AMES SALMONELLA TYPHIMURIUM, Strain/Indicator: TA100, Metabolic Activation: RAT, LIVER, S-9, AROCLOR 1254 (10%), Method: PREINCUBATION
[9] = Test System: AMES SALMONELLA TYPHIMURIUM, Strain/Indicator: TA100, Metabolic Activation: RAT, LIVER, S-9, AROCLOR 1254 (30%), Method: PREINCUBATION
[10] = Test System: AMES SALMONELLA TYPHIMURIUM, Strain/Indicator: TA1535, Metabolic Activation: NONE, Method: PREINCUBATION
[11] = Test System: AMES SALMONELLA TYPHIMURIUM, Strain/Indicator: TA1535, Metabolic Activation: RAT, LIVER, S-9, AROCLOR 1254 (10%), Method: PREINCUBATION
[12] = Test System: AMES SALMONELLA TYPHIMURIUM, Strain/Indicator: TA1535, Metabolic Activation: RAT, LIVER, S-9, AROCLOR 1254 (30%), Method: PREINCUBATION
[13] = Test System: AMES SALMONELLA TYPHIMURIUM, Strain/Indicator: TA1537, Metabolic Activation: NONE, Method: STANDARD PLATE
[14] = Test System: AMES SALMONELLA TYPHIMURIUM, Strain/Indicator: TA1538, Metabolic Activation: NONE, Method: STANDARD PLATE

In the case of `CN(C)CCO`, the mutagenic call (Test System: AMES SALMONELLA TYPHIMURIUM, Strain/Indicator: TA97, Metabolic Activation: HAMSTER, LIVER, AROCLOR 1254 (10 OR 30%), Method: PREINCUBATION) is reported as “inactive; negative”, the mutagenic call [1] is reported as “inactive; negative” and the mutagenic call (Test System: AMES SALMONELLA TYPHIMURIUM, Strain/Indicator: TA97, Metabolic Activation: RAT, LIVER, S-9, AROCLOR 1254 (10 OR 30%), Method: PREINCUBATION) is reported as “inactive; negative”. For the same compound, the mutagenic call (Test System: AMES SALMONELLA TYPHIMURIUM, Strain/Indicator: TA98, Metabolic Activation: HAMSTER, LIVER, S-9, AROCLOR 1254 (10%), Method: PREINCUBATION) was “inactive; negative”, the mutagenic call (Test System: AMES SALMONELLA TYPHIMURIUM, Strain/Indicator: TA98, Metabolic Activation: HAMSTER, LIVER, S-9, AROCLOR 1254 (30%), Method: PREINCUBATION) was “inactive; negative” and the mutagenic call [2] was “inactive; negative”. The mutagenic call [3] was “inactive; negative”, the mutagenic call [4] was “inactive; negative” and the mutagenic call [5] was “inactive; negative”. For the same compound, the mutagenic call (Test System: AMES SALMONELLA TYPHIMURIUM, Strain/Indicator: TA98, Metabolic Activation: RAT, LIVER, S-9, AROCLOR 1254, Method: STANDARD PLATE) was “inactive; negative”, the mutagenic call (Test System: AMES SALMONELLA TYPHIMURIUM, Strain/Indicator: TA100, Metabolic Activation: HAMSTER, LIVER, S-9, AROCLOR 1254 (10%), Method: PREINCUBATION) was “inactive; negative” and the mutagenic call (Test System: AMES SALMONELLA TYPHIMURIUM, Strain/Indicator: TA100, Metabolic Activation: HAMSTER, LIVER, S-9, AROCLOR 1254 (30%), Method: PREINCUBATION) was “inactive; negative”. The mutagenic call [6] was “inactive; negative”, the mutagenic call [7] was “inactive; negative” and the mutagenic call [8] was “inactive; negative”. For the same compound, the mutagenic call [9] was “inactive; negative”, the mutagenic call (Test System: AMES SALMONELLA TYPHIMURIUM, Strain/Indicator: TA100, Metabolic Activation: RAT, LIVER, S-9, AROCLOR 1254, Method: STANDARD PLATE) was “inactive; negative” and the mutagenic call (Test System: AMES SALMONELLA TYPHIMURIUM, Strain/Indicator: TA1535, Metabolic Activation: HAMSTER, LIVER, S-9, AROCLOR 1254 (10%), Method: PREINCUBATION) was “inactive; negative”. For the same compound, the mutagenic call (Test System: AMES SALMONELLA TYPHIMURIUM, Strain/Indicator: TA1535, Metabolic Activation: HAMSTER, LIVER, S-9, AROCLOR 1254 (30%), Method: PREINCUBATION) was “inactive; negative”, the mutagenic call [10] was “inactive; negative” and the mutagenic call (Test System: AMES SALMONELLA TYPHIMURIUM, Strain/Indicator: TA1535, Metabolic Activation: NONE, Method: STANDARD PLATE) was “inactive; negative”. The mutagenic call [11] was “inactive; negative”, the mutagenic call [12] was “inactive; negative” and the mutagenic call (Test System: AMES SALMONELLA TYPHIMURIUM, Strain/Indicator: TA1535, Metabolic Activation: RAT, LIVER, S-9, AROCLOR 1254, Method: STANDARD PLATE) was “inactive; negative”. The mutagenic call (Test System: AMES SALMONELLA TYPHIMURIUM, Strain/Indicator: TA1537, Metabolic Activation: HAMSTER, LIVER, S-9, AROCLOR 1254 (10%), Method: PREINCUBATION) was “inactive; negative”, the mutagenic call (Test System: AMES SALMONELLA TYPHIMURIUM, Strain/Indicator: TA1537, Metabolic Activation: HAMSTER, LIVER, S-9, AROCLOR 1254 (30%), Method: PREINCUBATION) was “inactive; negative” and the mutagenic call (Test System: AMES SALMONELLA TYPHIMURIUM, Strain/Indicator: TA1537, Metabolic Activation: NONE, Method: PREINCUBATION) was “inactive; negative”. The mutagenic call [13] was “inactive; negative”, the mutagenic call (Test System: AMES SALMONELLA TYPHIMURIUM, Strain/Indicator: TA1537, Metabolic Activation: RAT, LIVER, S-9, AROCLOR 1254 (10%), Method: PREINCUBATION) was “inactive; negative” and the mutagenic call (Test System: AMES SALMONELLA TYPHIMURIUM, Strain/Indicator: TA1537, Metabolic Activation: RAT, LIVER, S-9, AROCLOR 1254 (30%), Method: PREINCUBATION) was “inactive; negative”. For the same compound, the mutagenic call (Test System: AMES SALMONELLA TYPHIMURIUM, Strain/Indicator: TA1537, Metabolic Activation: RAT, LIVER, S-9, AROCLOR 1254, Method: STANDARD PLATE) was “inactive; negative”, the mutagenic call [14] was “inactive; negative” and the mutagenic call (Test System: AMES SALMONELLA TYPHIMURIUM, Strain/Indicator: TA1538, Metabolic Activation: RAT, LIVER, S-9, AROCLOR 1254, Method: STANDARD PLATE) was “inactive; negative”. For the same compound, the mutagenic call (Test System: CHINESE HAMSTER OVARY, Strain/Indicator: CHO-K1-BH4, Metabolic Activation: NONE) was “inactive; negative” and the mutagenic call (Test System: CHINESE HAMSTER OVARY, Strain/Indicator: CHO-K1-BH4, Metabolic Activation: RAT, LIVER, S-9, AROCLOR 1254) was “inactive; negative”.

In the case of `CC(C)(O)C#N`, the mutagenic call (Test System: AMES SALMONELLA TYPHIMURIUM, Strain/Indicator: TA97, Metabolic Activation: HAMSTER, LIVER, S-9, AROCLOR 1254 (10 OR 30%), Method: PREINCUBATION) is reported as “inactive; negative”, the mutagenic call [1] is reported as “inactive; negative” and the mutagenic call (Test System: AMES SALMONELLA TYPHIMURIUM, Strain/Indicator: TA97, Metabolic Activation: RAT, LIVER, S-9, AROCLOR 1254 (10%), Method: PREINCUBATION) is reported as “inactive; negative”. For the same compound, the mutagenic call (Test System: AMES SALMONELLA TYPHIMURIUM, Strain/Indicator: TA97, Metabolic Activation: RAT, LIVER, S-9, AROCLOR 1254 (30%), Method: PREINCUBATION) was “inactive; negative”, the mutagenic call (Test System: AMES SALMONELLA TYPHIMURIUM, Strain/Indicator: TA98, Metabolic Activation: HAMSTER, LIVER, S-9, AROCLOR 1254 (10 OR 30%), Method: PREINCUBATION) was “inactive; negative” and the mutagenic call [2] was “inactive; negative”. For the same compound, the mutagenic call [4] was “inactive; negative”, the mutagenic call [5] was “inactive; negative” and the mutagenic call (Test System: AMES SALMONELLA TYPHIMURIUM, Strain/Indicator: TA100, Metabolic Activation: HAMSTER, LIVER, S-9, AROCLOR 1254 (10 OR 30%), Method: PREINCUBATION) was “inactive; negative”. The mutagenic call [6] was “inactive; negative”, the mutagenic call [8] was “inactive; negative” and the mutagenic call [9] was “inactive; negative”. The mutagenic call (Test System: AMES SALMONELLA TYPHIMURIUM, Strain/Indicator: TA1535, Metabolic Activation: HAMSTER, LIVER, S-9, AROCLOR 1254 (10 OR 30%), Method: PREINCUBATION) was “inactive; negative”, the mutagenic call [10] was “inactive; negative” and the mutagenic call [11] was “inactive; negative”. The mutagenic call [12] was “inactive; negative”.

With `Nc1cc2c(cc1[N+](=O)[O-])[nH]c1ccccc12` the mutagenic call [3] was “active; positive”, the mutagenic call (Test System: AMES SALMONELLA TYPHIMURIUM, Strain/Indicator: TA98, Metabolic Activation: RAT, LIVER, S-9, PHENOBARBITAL, Method: STANDARD PLATE) was “active; positive” and the mutagenic call [7] was “active; positive”. The mutagenic call (Test System: AMES SALMONELLA TYPHIMURIUM, Strain/Indicator: TA100, Metabolic Activation: RAT, LIVER, S-9, PHENOBARBITAL, Method: STANDARD PLATE) was “active; positive”, the mutagenic call [13] was “active; positive” and the mutagenic call (Test System: AMES SALMONELLA TYPHIMURIUM, Strain/Indicator: TA1537, Metabolic Activation: RAT, LIVER, S-9, PHENOBARBITAL, Method: STANDARD PLATE) was “active; positive”. For the same compound, the mutagenic call [14] was “active; positive”, the mutagenic call (Test System: AMES SALMONELLA TYPHIMURIUM, Strain/Indicator: TA1538, Metabolic Activation: RAT, LIVER, S-9, PHENOBARBITAL, Method: STANDARD PLATE) was “active; positive” and the mutagenic call (Test System: AMES SALMONELLA TYPHIMURIUM, Strain/Indicator: TA1977, Metabolic Activation: NONE, Method: STANDARD PLATE) was “active; positive”. For the same compound, the mutagenic call (Test System: AMES SALMONELLA TYPHIMURIUM, Strain/Indicator: TA1977, Metabolic Activation: RAT, LIVER, S-9, PHENOBARBITAL, Method: STANDARD PLATE) was “active; positive”.
